Where two headings read alike, the source gives them in different places.
How the values were obtained:
[1] = target: human recombinant AChE (E.C. 3.1.1.7) (Homo sapiens, UniProt P22303); test: biochemical; conditions: for inhibition at 100 µM: read-out: % Inhibition hAChE ± SEM
[2] = target: human plasma BuChE (E.C. 3.1.1.8) (Homo sapiens, UniProt P06276); test: biochemical; conditions: for inhibition at 100 µM: read-out: % Inhibition hBuChE ± SEM
[3] = mean ± SEM of three independent measurements, each in triplicate, read-out: IC50 hBuChE ± SEM
[4] = mean ± SEM of three independent measurements, each in triplicate, read-out: IC50 hAChE ± SEM
[5] = tested at 100 µM compound concentration

human recombinant AChE (E.C. 3.1.1.7), sequence (P22303 32-614): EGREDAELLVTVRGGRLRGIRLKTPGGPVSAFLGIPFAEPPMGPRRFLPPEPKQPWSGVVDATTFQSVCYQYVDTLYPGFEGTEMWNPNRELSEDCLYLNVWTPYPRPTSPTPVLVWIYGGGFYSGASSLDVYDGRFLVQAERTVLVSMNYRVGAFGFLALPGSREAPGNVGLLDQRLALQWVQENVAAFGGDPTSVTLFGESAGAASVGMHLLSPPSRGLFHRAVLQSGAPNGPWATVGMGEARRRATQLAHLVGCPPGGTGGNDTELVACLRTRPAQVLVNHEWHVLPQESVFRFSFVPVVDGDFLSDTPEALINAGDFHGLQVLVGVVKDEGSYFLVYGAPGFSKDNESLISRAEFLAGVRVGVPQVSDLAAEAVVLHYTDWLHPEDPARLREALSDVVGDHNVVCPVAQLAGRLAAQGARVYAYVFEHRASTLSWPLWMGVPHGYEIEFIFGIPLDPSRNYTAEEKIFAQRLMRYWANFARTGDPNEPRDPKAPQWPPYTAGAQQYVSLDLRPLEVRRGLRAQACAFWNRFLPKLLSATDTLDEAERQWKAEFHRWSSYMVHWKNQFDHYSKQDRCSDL
human plasma BuChE (E.C. 3.1.1.8), sequence (P06276 29-602): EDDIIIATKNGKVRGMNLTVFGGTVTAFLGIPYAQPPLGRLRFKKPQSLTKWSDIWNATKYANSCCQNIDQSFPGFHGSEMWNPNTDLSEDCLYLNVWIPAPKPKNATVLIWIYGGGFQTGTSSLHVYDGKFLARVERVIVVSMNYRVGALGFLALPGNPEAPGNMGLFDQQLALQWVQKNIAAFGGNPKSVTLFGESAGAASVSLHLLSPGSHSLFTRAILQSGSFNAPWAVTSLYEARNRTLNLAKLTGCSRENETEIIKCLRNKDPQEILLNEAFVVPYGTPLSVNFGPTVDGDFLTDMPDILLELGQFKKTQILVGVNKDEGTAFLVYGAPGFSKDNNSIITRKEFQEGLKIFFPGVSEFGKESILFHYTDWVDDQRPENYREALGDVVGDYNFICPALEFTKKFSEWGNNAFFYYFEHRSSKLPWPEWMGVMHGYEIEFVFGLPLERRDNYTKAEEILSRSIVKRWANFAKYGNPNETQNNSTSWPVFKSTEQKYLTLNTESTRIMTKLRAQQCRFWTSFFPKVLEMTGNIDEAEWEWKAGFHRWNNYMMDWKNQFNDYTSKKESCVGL

Compound | inhibition at 100 µM [1] | IC50 ([1]; read-out: IC50 hAChE ± SEM) | IC50 [2, 3] | inhibition at 100 µM [2] | IC50 [1] | IC50 [2] | IC50 [1, 4] | inhibition at 100 µM [1, 5] | inhibition at 100 µM [2, 5]
COc1cc2c(cc1O)C(=O)N1CCC3=C[C@H](O)[C@@H](OC(C)=O)[C@@H]2[C@@H]31 [sternbergine (17), sternbergine] | 1.25 ± 0.23% | > 100 µM | > 100 µM | 23.5 ± 2.28% |  |  |  |  | 
COc1cc2c(cc1O)CN1CCC23C=CC(OC(C)=O)CC13 (centres unmarked) [3-O-acetyl-8-O-demethylmaritidine (12), 3-O-acetyl-8-O-demethylmaritidine] | 12.3 ± 1.29% |  |  | 10.3 ± 2.06% | > 100 µM | > 100 µM |  |  | 
COC(=O)c1cc(C(=O)O[C@H]2C[C@H]3CCN(C)[C@H]3[C@@H]3c4cc5c(cc4C(=O)O[C@H]32)OCO5)c(C)nc1C [cliniatine C (4), cliniatine C] |  |  | > 100 µM |  |  |  | > 100 µM | 5.72 ± 0.53% | 9.43 ± 1.23%
CC(O)CC(=O)O[C@H]1C[C@H]2CCN(C)[C@H]2[C@@H]2c3cc4c(cc3C(=O)O[C@H]21)OCO4 (some centres unmarked) [nobilisitine B (14), nobilisitine B] |  |  | > 100 µM |  |  |  | > 100 µM | 40 ± 1.13% | 12.6 ± 0.53%
COc1ccc2c3c1O[C@H]1C[C@@H](O)C=C[C@@]31CCN(C)C2 [galanthamine, reference compound] |  |  |  | 68.2 ± 1.24% |  |  |  |  | 
CN1CC[C@@H]2C[C@H](O)[C@@H]3OC(=O)c4cc5c(cc4[C@H]3[C@@H]21)OCO5 [clivonine (6), clivonine] | 34.4 ± 1.68% |  |  | 28.2 ± 6.63% | > 100 µM | > 100 µM |  |  | 
Cc1nc(C)c(C(=O)OC2CC3CCN(C)C3C3c4cc5c(cc4C(=O)OC23)OCO5)cc1C(=O)OC1CC2CCN(C)C2c2c1oc(=O)c1cc3c(cc21)OCO3 (centres unmarked) [clivimine B (3), clivimine B] |  |  | > 100 µM |  |  |  | > 100 µM | 10.1 ± 5.37% | 7.69 ± 2.56%
Cc1nc(C)c(C(=O)O[C@H]2C[C@H]3CCN(C)[C@H]3[C@@H]3c4cc5c(cc4C(=O)O[C@H]32)OCO5)cc1C(=O)O[C@H]1C[C@H]2CCN(C)[C@H]2[C@@H]2c3cc4c(cc3C(=O)O[C@H]21)OCO4 [clivimine (2), clivimine] |  |  | > 100 µM |  |  |  | > 100 µM | 9.62 ± 1.75% | 15.2 ± 8.23%

— paper PMC9692855, “Amaryllidaceae Alkaloids from Clivia miniata (Lindl.) Bosse (Amaryllidaceae): Isolation, Structural Elucidation, and Biological Activity” (Plants, 2022)
